Reference: patent publication US11401255B2, “Small molecule activators of Parkin enzyme function” (Mayo Foundation for Medical Education and Research, priority 2016, dated 2022)

Columns and labels:
[1] = test system: HeLa mtKeima cells; assay: Mitophagy assay (mtKeima HCI); assay type: cell-based, human; settings: 5 μM, low-dose CCCP
Description: HCI in 384-well plates was used to calculate the ratio of acidic to neutral mtKeima. Upon treatment with 10 μM CCCP, there was significant increase of the mtKeima ratio. Pre-treatment with compound 4 (dashed line, here shown 5 μM of compound 4) induced this also at low-dose CCCP concentrations while low dose CCCP alone (solid line) had only little effect on the ratio of acidic to neutral mtKeima.
HeLa mtKeima cells were pre-treated for 2 h with 12 different doses of Compounds 1, 2, 3, 4, and 31 before low-dose CCCP was added (3 μM final concentration). 10 μM CCCP was added to positive control wells. Cells were imaged live after 4 h and 8 h of CCCP. Values were normalized to the positive and negative (3 μM CCCP) control values for each time point. Curve fitting was used to calculate EC50 values.
To confirm mitophagy, HeLa cells expressing the pH-sensitive, mitochondria-targeted reporter mitoKeima46 were employed. A characteristic shift in the excitation wavelength of mitoKeima upon lysosomal fusion was used to determine mitochondrial turnover using […]. For mitoKeima experiments (Kim et al., Mol. Neurodegen. (2016) 11:55), cells were seeded in DMEM media lacking phenol red […]. Hoechst counterstain was added as a 5× stock in 5 μL volume. […] Segmentation of cells was performed as above and for each region of interest the ratio of acidic and neutral mitoKeima was calculated. […]

[2] = target: T1, Parkin (Homo sapiens (Human), UniProt O60260); assay: In vitro ubiquitylation assay with isolated mitochondria; assay type: biochemical; settings: mitochondria from CCCP-treated HeLa cells lacking Parkin, vs DMSO
T1 sequence (O60260 whole entry): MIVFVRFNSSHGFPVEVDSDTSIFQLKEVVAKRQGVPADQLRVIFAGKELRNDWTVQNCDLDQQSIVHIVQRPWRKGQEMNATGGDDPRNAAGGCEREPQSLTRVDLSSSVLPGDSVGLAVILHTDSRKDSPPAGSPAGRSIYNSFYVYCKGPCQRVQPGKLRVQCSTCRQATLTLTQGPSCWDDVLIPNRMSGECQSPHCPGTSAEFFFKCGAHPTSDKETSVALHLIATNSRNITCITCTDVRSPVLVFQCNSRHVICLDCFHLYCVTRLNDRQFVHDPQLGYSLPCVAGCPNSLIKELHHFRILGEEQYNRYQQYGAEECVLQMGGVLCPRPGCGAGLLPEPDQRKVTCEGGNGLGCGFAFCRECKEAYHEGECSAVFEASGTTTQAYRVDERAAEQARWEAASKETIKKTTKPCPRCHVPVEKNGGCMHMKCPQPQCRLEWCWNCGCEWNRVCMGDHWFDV
Description: (§1) FIGS. 15A-15H show Parkin activation in primary fibroblasts, neuronal cells and in vitro. Positive control (PC) cells were treated with DMSO and 10 μM of CCCP. Negative control (NC) cells were treated with 3.5 μM CCCP, some cells were left untreated (−). […] Vinculin was used as loading control. […] FIG. 15C: Human fibroblasts were directly converted to neurons and treated as in FIG. 15B. […] Beta III tubulin confirmed successful conversion of fibroblasts to iNeurons. FIG. 15D: Rat PC12 cells were treated as in FIG. 15A. Western blots show enhanced ubiquitylation of MFN2 and TOM70, and robust pSer65-Ub induction similar to PC, but not NC cells. FIG. 15E: In vitro E2 discharge assay. Recombinant Parkin was pre-incubated with compound 4 or DMSO as control and was mixed to Ub-loaded UbcH7. […] Control reactions were performed without PINK1 or Parkin. FIG. 15F: In vitro assay with isolated mitochondria from untreated or CCCP-treated HeLa cells lacking Parkin. Mitochondrial preparations were mixed with recombinant Parkin, E1, UbcH7, ATP and either compound 4 or DMSO as a control and incubated for the indicated times. […] Control samples were incubated in reaction mix without Parkin. […]
The in vitro assays with mitochondrial preparations were performed as follows. […] The mitochondrial pellet was resuspended in solution B and the protein concentration determined by BCA. […]

[3] = target: T1, Parkin; assay: In vitro E2 discharge assay; assay type: biochemical; settings: Ub-loaded UbcH7, presence of PINK1, vs DMSO
Description: as §1
As the first readout for Parkin activity, E2 Ub discharge assays were performed, complementary to the Ub-charging assays of Parkin C431S in cells. […]

Structure (SMILES): O=C(Cn1ccnc1-c1ccccn1)Nc1ccc(-c2ccccc2)cc1 [Compound 4]
- mitophagy flux (ratio of acidic to neutral mtKeima) [1]: enhanced mitophagy flux
- MFN1 ubiquitylation [2]: increased ubiquitylation
- E2 discharge [3]: slightly more E2 discharge
